Converted amounts (≈) assume the structure as drawn. Like-named read-outs stand apart in the source and are kept apart here.
Legend:
T. cruzi epimastigotes = assay: Antiepimastigote activity, T. cruzi CL-B5 lacZ (CPRG); assay type: cell-based, Trypanosoma cruzi; settings: clone CL-B5, 72 h; for IC50: Trypanosoma cruzi
Procedure: For in vitro studies of T. cruzi, the clone CL-B5 was used (donated by Faculty of Pharmacy, Complutense University, Madrid, Spain). Parasites were stably transfected with the Escherichia coli β-galactosidase gene (lacZ). Epimastigotes were grown at 28 °C in liver infusion tryptose broth (Difco, Detroit, MI, USA) with 10% fetal bovine serum (FBS) (Gibco, Carlsbad, CA, USA), penicillin (Ern S.A., Barcelona, Spain), and streptomycin (Reig Jofré S.A., Barcelona, Spain), as described previously, and harvested during the exponential growth phase. Briefly, the screening assay was performed in 96-well microplates (Sarstedt, Inc., Newton, NC, USA) with cultures that had not reached the stationary phase. Epimastigotes were seeded at 2 × 10^5 parasites/mL in 200 µL growth media. The plates were then incubated with the respective compounds at 28 °C for 72 h; afterwards, 50 µL of chlorophenol red-β-D-galactopyranoside (CPRG) solution was added, resulting in a final concentration of 200 µM. The plates were incubated at 37 °C for an additional 4 h and then read at 595 nm. Each concentration was tested in triplicate. The efficacy of each compound was estimated by calculating the IC50 values. These values were calculated by the sigmoidal dose–response curve adjustment using the statistical software program Graph-Pad Prims 3.0 (GraphPhad, San Diego, CA, USA). Benznidazole was used as the reference drug.

[1] = test system: L. braziliensis promastigotes; assay: Leishmanicidal activity on L. braziliensis promastigotes (resazurin); assay type: cell-based, Leishmania braziliensis; settings: 48 h; for IC50: Leishmania braziliensis, read-out: Leishmanicidal Activity on Promastigotes, L. braziliensis, IC50
Procedure: (§1) Culture of L. braziliensis (MHOM/BR/75/M2904), and L. infantum (MHOM/FR/91/LEM2259V) was obtained from the Facultad de Farmacia (Universidad Complutense de, Madrid, Spain). The maintenance of the strains, the form of cultivation, and the isolation of shape promastigota were performed following the procedures described by Roldos et al.. The promastigotes were grown at 22 °C in Schneider’s Drosophila medium supplemented with 20% FBS. The assay was performed using a modification of a previous method. Promastigotes (2 × 10^6 parasites/well) were cultured in 96-well plastic plates. Compounds were dissolved in dimethylsulfoxide (DMSO). Different dilutions of the compounds with a final volume up to 200 µL were added. After 48 h at 26 °C, 20 µL of a 2 mM resazurin solution was added, and the oxidation-reduction was quantified at 570 and 600 nm. The solution of resazurin was prepared at 2.5 mM in phosphate buffered solution (PBS), pH 7.4, and filtered through 0.22 µm prior to use. All tests were carried out in triplicate. Resazurin sodium salt was obtained from Sigma-Aldrich (St. Louis, MO, USA) and stored at 4 °C protected from light. The efficacy of each compound was estimated by calculating the IC50 values.

[2] = Cytotoxicity on NCTC-Clone 929 fibroblasts (resazurin); assay type: cell-based; settings: mouse
Procedure: The cell line used was NCTC-Clone 929, which was grown in Minimal Essential Medium (Sigma) supplemented with 10% heat-inactivated FBS, penicillin G (100 U/mL), and streptomycin (100 µg/mL). Cell cultures were maintained at 37 °C in a humidified 5% CO2 atmosphere. The procedure for cell viability measurement was evaluated with resazurin by a colorimetric method. The cells were plated in 96-microtiter plates at 3 × 10^4 cells per well in a 100 µL growth medium. The cells were grown overnight at 37 °C, 5% CO2. Thereafter, the medium was removed and the compounds were added in a 200 µL medium for 24 h. After incubation, 20 µL of a 2 mM resazurin solution was added to each well. The plates were incubated for 3 h to allow optimal oxidation-reduction. The reduction of resazurin was determined by dual wavelength absorbance measurement at 490 and 595 nm. Background was subtracted. Each concentration was assayed three times. Medium and drug controls were used in each test as blanks.

[3] = test system: L. infantum promastigotes; assay: Leishmanicidal activity on L. infantum promastigotes (resazurin); assay type: cell-based, Leishmania infantum; settings: 48 h; for IC50: Leishmania infantum, read-out: Leishmanicidal Activity on Promastigotes, L. infantum, IC50
Procedure: as §1

SMILES	IC50 (T. cruzi epimastigotes)	IC50 ([1]; promastigotes)	IC50 at 24 h [2]	IC50 ([3]; promastigotes)	IC50 [1]	IC50 [3]	Antiepimastigote Activity of T. cruzi, IC50 (T. cruzi epimastigotes)	Leishmanicidal Activity on Promastigotes, L. braziliensis, IC50 ([1]; promastigotes)	Leishmanicidal Activity on Promastigotes, L. infantum, IC50 ([3]; promastigotes)
C#CCCCC(=O)O[C@H]1CC[C@@]2(C)C(CC[C@]3(C)C2CC=C2[C@@H]4CC(C)(C)CC[C@]4(C(=O)O)CC[C@]23C)C1(C)C (stereo partly shown) [Compound 19]	> 256 µg/mL	109 µg/mL (≈ 198 µM)	> 256 µg/mL	155 µg/mL (≈ 281 µM)	–	–	–	–	–
COC(=O)[C@]12CCC(C)(C)C[C@H]1C1=CCC3[C@@]4(C)CC[C@H](OC(=O)CCCc5cn(S(=O)(=O)c6ccc(C)cc6)nn5)C(C)(C)C4CC[C@@]3(C)[C@]1(C)CC2 (stereo partly shown) [Compound 32]	> 256 µg/mL	–	–	–	> 256 µg/mL	> 256 µg/mL	–	–	–
CC(C)c1ccc2c(c1)CC[C@H]1[C@](C)(C(=O)O)CCC[C@]21C [DHA, Dehydroabietic acid]	212 µg/mL (≈ 706 µM)	44 µg/mL (≈ 146 µM)	–	72 µg/mL (≈ 240 µM)	–	–	–	–	–
C#CCCC(=O)O[C@H]1CC[C@@]2(C)C(CC[C@]3(C)C2CC=C2[C@@H]4CC(C)(C)CC[C@]4(C(=O)O)CC[C@]23C)C1(C)C (stereo partly shown) [Compound 17]	252 µg/mL (≈ 469 µM)	> 256 µg/mL	196 µg/mL (≈ 365 µM)	> 256 µg/mL	–	–	–	–	–
Cc1ccc(S(=O)(=O)n2cc(CCC(=O)OC[C@]3(C)CCC[C@]4(C)c5ccc(C(C)C)cc5CCC34)nn2)cc1 (stereo partly shown) [Compound 15]	69 µg/mL (≈ 122 µM)	89 µg/mL (≈ 158 µM)	232 µg/mL (≈ 412 µM)	53 µg/mL (≈ 94 µM)	–	–	–	–	–
CC(C)c1ccc2c(c1)CCC1[C@](C)(COC(=O)CCc3cn(Cc4ccccc4)nn3)CCC[C@]21C (stereo partly shown) [Compound 7]	> 256 µg/mL	–	> 256 µg/mL	–	> 256 µg/mL	> 256 µg/mL	–	–	–
CC1(C)CC[C@]2(C(=O)O)CC[C@]3(C)C(=CCC4[C@@]5(C)CC[C@H](OC(=O)CCCc6cn(CSc7ccccc7)nn6)C(C)(C)C5CC[C@]43C)[C@@H]2C1 (stereo partly shown) [Compound 33]	> 256 µg/mL	–	–	–	> 256 µg/mL	> 256 µg/mL	–	–	–
CC(C)c1ccc2c(c1)CC[C@H]1[C@](C)(CO)CCC[C@]21C [Dehydroabietinol, dehydroabietinol, reference compound]	–	–	–	–	–	–	66 µg/mL	63 µg/mL	40 µg/mL
COc1ccc(-n2cc(CCC(=O)O[C@H]3CC[C@@]4(C)C(CC[C@]5(C)C4CC=C4[C@@H]6CC(C)(C)CC[C@]6(C(=O)O)CC[C@]45C)C3(C)C)nn2)cc1 (stereo partly shown) [Compound 23]	> 256 µg/mL	–	> 256 µg/mL	–	> 256 µg/mL	> 256 µg/mL	–	–	–
COC(=O)[C@]12CCC(C)(C)C[C@H]1C1=CCC3[C@@]4(C)CC[C@H](OC(=O)CCc5cn(-c6ccc(OC)cc6)nn5)C(C)(C)C4CC[C@@]3(C)[C@]1(C)CC2 (stereo partly shown) [Compound 24]	> 256 µg/mL	–	> 256 µg/mL	–	> 256 µg/mL	> 256 µg/mL	–	–	–
CC(C)c1ccc2c(c1)CCC1[C@](C)(COC(=O)CCCCc3cn(CSc4ccccc4)nn3)CCC[C@]21C (stereo partly shown) [Compound 10]	> 256 µg/mL	–	> 256 µg/mL	–	> 256 µg/mL	> 256 µg/mL	–	–	–
C#CCCC(=O)O[C@H]1CC[C@@]2(C)C(CC[C@]3(C)C2CC=C2[C@@H]4CC(C)(C)CC[C@]4(C(=O)OC)CC[C@]23C)C1(C)C (stereo partly shown) [Compound 18]	> 256 µg/mL	–	> 256 µg/mL	–	> 256 µg/mL	> 256 µg/mL	–	–	–
Cc1ccc(S(=O)(=O)n2cc(CCCCC(=O)OC[C@]3(C)CCC[C@]4(C)c5ccc(C(C)C)cc5CCC34)nn2)cc1 (stereo partly shown) [Compound 16]	199 µg/mL (≈ 336 µM)	71 µg/mL (≈ 120 µM)	129 µg/mL (≈ 218 µM)	73 µg/mL (≈ 123 µM)	–	–	–	–	–
CC(C)c1ccc2c(c1)CCC1[C@](C)(C(=O)OCCc3cn(-c4ccccc4)nn3)CCC[C@]21C (stereo partly shown) [Compound 2]	> 256 µg/mL	–	> 256 µg/mL	–	> 256 µg/mL	> 256 µg/mL	–	–	–
CC(C)c1ccc2c(c1)CCC1[C@](C)(COC(=O)CCCCc3cn(-c4ccccc4)nn3)CCC[C@]21C (stereo partly shown) [Compound 6]	> 256 µg/mL	–	> 256 µg/mL	–	> 256 µg/mL	> 256 µg/mL	–	–	–
CC(C)c1ccc2c(c1)CCC1[C@](C)(C(=O)OCc3cn(-c4ccccc4)nn3)CCC[C@]21C (stereo partly shown) [Compound 1]	46 µg/mL (≈ 101 µM)	53 µg/mL (≈ 116 µM)	> 256 µg/mL	60 µg/mL (≈ 131 µM)	–	–	–	–	–
CC(C)c1ccc2c(c1)CCC1[C@](C)(COC(=O)CCc3cn(Cc4cccc(Cl)c4)nn3)CCC[C@]21C (stereo partly shown) [Compound 13]	> 256 µg/mL	242 µg/mL (≈ 453 µM)	> 256 µg/mL	–	–	> 256 µg/mL	–	–	–
COC(=O)[C@]12CCC(C)(C)C[C@H]1C1=CCC3[C@@]4(C)CC[C@H](OC(=O)CCc5cn(CSc6ccccc6)nn5)C(C)(C)C4CC[C@@]3(C)[C@]1(C)CC2 (stereo partly shown) [Compound 30]	> 256 µg/mL	–	> 256 µg/mL	–	> 256 µg/mL	> 256 µg/mL	–	–	–
COC(=O)[C@]12CCC(C)(C)C[C@H]1C1=CCC3[C@@]4(C)CC[C@H](OC(=O)CCc5cn(-c6ccccc6)nn5)C(C)(C)C4CC[C@@]3(C)[C@]1(C)CC2 (stereo partly shown) [Compound 22]	> 256 µg/mL	–	> 256 µg/mL	–	> 256 µg/mL	> 256 µg/mL	–	–	–
COc1ccc(-n2cc(CCCCC(=O)OC[C@]3(C)CCC[C@]4(C)c5ccc(C(C)C)cc5CCC34)nn2)cc1 (stereo partly shown) [Compound 12]	> 256 µg/mL	–	> 256 µg/mL	–	> 256 µg/mL	> 256 µg/mL	–	–	–
CC(C)c1ccc2c(c1)CCC1[C@](C)(COC(=O)CCc3cn(CSc4ccccc4)nn3)CCC[C@]21C (stereo partly shown) [Compound 9]	> 256 µg/mL	–	> 256 µg/mL	–	> 256 µg/mL	> 256 µg/mL	–	–	–
CC1(C)CC[C@]2(C(=O)O)CC[C@]3(C)C(=CCC4[C@@]5(C)CC[C@H](OC(=O)CCc6cn(Cc7ccc(Cl)cc7)nn6)C(C)(C)C5CC[C@]43C)[C@@H]2C1 (stereo partly shown) [Compound 25]	> 256 µg/mL	–	> 256 µg/mL	–	> 256 µg/mL	> 256 µg/mL	–	–	–
CC(C)c1ccc2c(c1)CCC1[C@](C)(COC(=O)CCCCc3cn(Cc4cccc(Cl)c4)nn3)CCC[C@]21C (stereo partly shown) [Compound 14]	> 256 µg/mL	–	> 256 µg/mL	–	> 256 µg/mL	> 256 µg/mL	–	–	–
COC(=O)[C@]12CCC(C)(C)C[C@H]1C1=CCC3[C@@]4(C)CC[C@H](OC(=O)CCCc5cn(CSc6ccccc6)nn5)C(C)(C)C4CC[C@@]3(C)[C@]1(C)CC2 (stereo partly shown) [Compound 34]	> 256 µg/mL	–	–	–	> 256 µg/mL	> 256 µg/mL	–	–	–
CC(C)c1ccc2c(c1)CCC1[C@](C)(C(=O)OCCc3cn(CSc4ccccc4)nn3)CCC[C@]21C (stereo partly shown) [Compound 4]	61 µg/mL (≈ 118 µM)	64 µg/mL (≈ 124 µM)	189 µg/mL (≈ 365 µM)	64 µg/mL (≈ 124 µM)	–	–	–	–	–
CC1(C)CC[C@]2(C(=O)O)CC[C@]3(C)C(=CCC4[C@@]5(C)CC[C@H](OC(=O)CCc6cn(CSc7ccccc7)nn6)C(C)(C)C5CC[C@]43C)[C@@H]2C1 (stereo partly shown) [Compound 29]	> 256 µg/mL	–	> 256 µg/mL	–	> 256 µg/mL	> 256 µg/mL	–	–	–
CC1(C)CC[C@]2(C(=O)O)CC[C@]3(C)C(=CCC4[C@@]5(C)CC[C@H](OC(=O)CCc6cn(-c7ccccc7)nn6)C(C)(C)C5CC[C@]43C)[C@@H]2C1 (stereo partly shown) [Compound 21]	> 256 µg/mL	–	> 256 µg/mL	–	> 256 µg/mL	> 256 µg/mL	–	–	–
COc1ccc(-n2cc(CCC(=O)OC[C@]3(C)CCC[C@]4(C)c5ccc(C(C)C)cc5CCC34)nn2)cc1 (stereo partly shown) [Compound 11]	> 256 µg/mL	–	> 256 µg/mL	–	> 256 µg/mL	> 256 µg/mL	–	–	–
N=C(N)c1ccc(OCCCCCOc2ccc(C(=N)N)cc2)cc1 [Pentamidine, reference compound]	–	3.3 µg/mL (≈ 9.69 µM)	–	3.3 µg/mL (≈ 9.69 µM)	–	–	–	–	–
